Data on seven compounds can be found in ChEMBL document CHEMBL5442219.

SMILES strings stand for the structures.

Holding throughout (conditions): Compound concentration 10 µM
For assay [1], the target named is Mu-type opioid receptor (Homo sapiens) (UniProt P35372).
Assay [2] has as its target 5-hydroxytryptamine receptor 1B (Homo sapiens) (UniProt P28222).
The target of assay [3] is T1, Muscarinic acetylcholine receptor M1 (Homo sapiens) (UniProt P11229).
T1 sequence (whole entry): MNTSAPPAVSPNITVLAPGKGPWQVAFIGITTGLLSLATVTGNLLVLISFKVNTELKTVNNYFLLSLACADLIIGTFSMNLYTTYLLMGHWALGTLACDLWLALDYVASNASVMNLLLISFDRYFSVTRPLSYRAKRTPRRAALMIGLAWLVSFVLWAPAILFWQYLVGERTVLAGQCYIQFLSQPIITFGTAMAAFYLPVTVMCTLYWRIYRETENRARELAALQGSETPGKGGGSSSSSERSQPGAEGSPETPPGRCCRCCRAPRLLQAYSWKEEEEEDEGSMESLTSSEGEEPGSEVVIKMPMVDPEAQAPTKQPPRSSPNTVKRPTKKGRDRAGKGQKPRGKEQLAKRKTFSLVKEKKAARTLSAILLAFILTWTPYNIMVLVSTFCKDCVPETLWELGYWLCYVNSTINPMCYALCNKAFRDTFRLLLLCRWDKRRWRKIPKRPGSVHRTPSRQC

Assay [4] deals with T2, Alpha-1D adrenergic receptor (Homo sapiens) (UniProt P25100).
T2 sequence (whole entry): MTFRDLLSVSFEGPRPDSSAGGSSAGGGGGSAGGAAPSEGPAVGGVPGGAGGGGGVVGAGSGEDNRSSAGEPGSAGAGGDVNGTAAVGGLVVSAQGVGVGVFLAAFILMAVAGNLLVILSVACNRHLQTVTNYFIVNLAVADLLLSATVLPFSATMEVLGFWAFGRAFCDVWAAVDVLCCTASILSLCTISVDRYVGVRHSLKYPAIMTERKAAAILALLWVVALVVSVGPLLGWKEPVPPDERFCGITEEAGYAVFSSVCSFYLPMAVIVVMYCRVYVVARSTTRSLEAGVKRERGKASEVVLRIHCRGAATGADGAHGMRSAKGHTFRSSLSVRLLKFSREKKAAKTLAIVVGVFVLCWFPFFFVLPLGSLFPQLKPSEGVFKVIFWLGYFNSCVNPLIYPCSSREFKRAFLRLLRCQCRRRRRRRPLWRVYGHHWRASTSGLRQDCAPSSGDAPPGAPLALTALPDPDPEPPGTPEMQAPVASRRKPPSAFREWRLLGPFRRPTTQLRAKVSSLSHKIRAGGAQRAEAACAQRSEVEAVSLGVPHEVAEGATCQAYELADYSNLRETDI

Assay [5] addresses 5-hydroxytryptamine receptor 2B (Homo sapiens) (UniProt P41595).
Assay [6] deals with Sigma intracellular receptor 2 (Homo sapiens) (UniProt Q5BJF2).
Sequence of Sigma intracellular receptor 2 (Homo sapiens) (Q5BJF2 whole entry): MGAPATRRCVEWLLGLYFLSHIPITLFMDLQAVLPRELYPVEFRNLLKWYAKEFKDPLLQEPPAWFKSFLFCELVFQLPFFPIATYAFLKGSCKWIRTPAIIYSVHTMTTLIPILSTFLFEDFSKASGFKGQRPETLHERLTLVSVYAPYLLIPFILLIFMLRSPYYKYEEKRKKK
In assay [7] the target is 5-hydroxytryptamine receptor 7 (Homo sapiens) (UniProt P34969).
Sequence of 5-hydroxytryptamine receptor 7 (Homo sapiens) (P34969 whole entry): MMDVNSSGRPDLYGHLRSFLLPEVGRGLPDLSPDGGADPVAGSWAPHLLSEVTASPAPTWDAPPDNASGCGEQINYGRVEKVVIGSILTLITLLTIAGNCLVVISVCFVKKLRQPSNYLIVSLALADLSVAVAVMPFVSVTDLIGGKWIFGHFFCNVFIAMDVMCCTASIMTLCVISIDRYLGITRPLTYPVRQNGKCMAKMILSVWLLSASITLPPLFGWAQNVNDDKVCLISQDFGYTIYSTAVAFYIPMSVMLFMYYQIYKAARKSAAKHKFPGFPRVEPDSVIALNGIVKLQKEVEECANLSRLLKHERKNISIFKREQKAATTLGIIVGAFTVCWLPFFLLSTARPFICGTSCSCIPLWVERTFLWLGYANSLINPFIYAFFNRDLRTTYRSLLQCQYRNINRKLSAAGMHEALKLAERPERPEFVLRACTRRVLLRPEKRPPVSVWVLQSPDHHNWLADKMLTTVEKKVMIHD
The target in assay [8] is Histamine H1 receptor (Homo sapiens) (UniProt P35367).
Assay [9] concerns the target T3, 5-hydroxytryptamine receptor 3A (Homo sapiens) (UniProt P46098).
T3 sequence (whole entry): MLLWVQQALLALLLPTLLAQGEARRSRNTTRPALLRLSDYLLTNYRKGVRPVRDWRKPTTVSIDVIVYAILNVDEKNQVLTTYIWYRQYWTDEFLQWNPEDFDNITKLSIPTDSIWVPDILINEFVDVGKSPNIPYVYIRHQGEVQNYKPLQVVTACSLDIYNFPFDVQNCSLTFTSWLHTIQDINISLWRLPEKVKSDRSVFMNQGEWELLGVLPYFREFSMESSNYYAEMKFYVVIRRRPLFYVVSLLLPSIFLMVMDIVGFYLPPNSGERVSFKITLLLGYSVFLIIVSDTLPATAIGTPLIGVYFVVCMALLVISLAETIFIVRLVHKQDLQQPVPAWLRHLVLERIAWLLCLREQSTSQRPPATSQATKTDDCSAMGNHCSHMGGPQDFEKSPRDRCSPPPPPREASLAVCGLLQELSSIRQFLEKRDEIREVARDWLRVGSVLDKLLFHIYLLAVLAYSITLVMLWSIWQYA

The target of assay [10] is 5-hydroxytryptamine receptor 1D (Homo sapiens) (UniProt P28221).
Sequence of 5-hydroxytryptamine receptor 1D (Homo sapiens) (P28221 whole entry): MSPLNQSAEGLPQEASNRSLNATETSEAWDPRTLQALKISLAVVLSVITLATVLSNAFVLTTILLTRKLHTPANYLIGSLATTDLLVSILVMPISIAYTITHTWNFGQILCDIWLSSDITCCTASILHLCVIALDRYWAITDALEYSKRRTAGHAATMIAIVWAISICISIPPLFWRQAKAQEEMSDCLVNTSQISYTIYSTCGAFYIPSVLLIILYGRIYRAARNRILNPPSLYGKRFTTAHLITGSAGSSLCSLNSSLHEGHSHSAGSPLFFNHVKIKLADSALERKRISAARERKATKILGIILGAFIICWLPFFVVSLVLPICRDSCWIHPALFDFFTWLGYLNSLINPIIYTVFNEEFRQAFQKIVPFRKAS
Assay [11] deals with 5-hydroxytryptamine receptor 2A (Homo sapiens) (UniProt P28223).
Sequence of 5-hydroxytryptamine receptor 2A (Homo sapiens) (P28223 whole entry): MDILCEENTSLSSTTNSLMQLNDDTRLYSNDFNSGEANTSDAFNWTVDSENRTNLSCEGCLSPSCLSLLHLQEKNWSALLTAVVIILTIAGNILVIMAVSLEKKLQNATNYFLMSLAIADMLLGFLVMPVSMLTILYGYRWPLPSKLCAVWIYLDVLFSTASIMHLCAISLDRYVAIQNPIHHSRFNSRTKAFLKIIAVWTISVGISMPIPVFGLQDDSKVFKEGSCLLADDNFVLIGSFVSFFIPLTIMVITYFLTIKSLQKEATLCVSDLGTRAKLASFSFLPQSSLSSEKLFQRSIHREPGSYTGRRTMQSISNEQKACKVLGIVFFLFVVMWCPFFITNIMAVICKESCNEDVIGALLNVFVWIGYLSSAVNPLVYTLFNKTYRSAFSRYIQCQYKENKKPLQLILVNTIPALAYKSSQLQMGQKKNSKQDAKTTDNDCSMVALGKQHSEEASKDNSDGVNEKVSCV
In assay [12] the target is D(2) dopamine receptor (Homo sapiens) (UniProt P14416).
Sequence of D(2) dopamine receptor (Homo sapiens) (P14416 whole entry): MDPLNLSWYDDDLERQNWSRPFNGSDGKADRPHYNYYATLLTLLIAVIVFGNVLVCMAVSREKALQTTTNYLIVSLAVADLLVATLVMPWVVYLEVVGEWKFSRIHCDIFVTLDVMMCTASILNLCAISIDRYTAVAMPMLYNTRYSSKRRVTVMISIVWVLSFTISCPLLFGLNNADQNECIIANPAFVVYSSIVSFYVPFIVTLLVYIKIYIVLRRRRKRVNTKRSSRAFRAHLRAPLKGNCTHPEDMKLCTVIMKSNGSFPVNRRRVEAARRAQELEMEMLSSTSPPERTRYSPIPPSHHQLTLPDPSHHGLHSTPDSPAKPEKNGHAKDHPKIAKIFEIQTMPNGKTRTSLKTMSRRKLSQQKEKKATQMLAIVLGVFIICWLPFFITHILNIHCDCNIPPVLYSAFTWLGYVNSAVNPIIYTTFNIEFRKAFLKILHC
Assay [13] deals with Delta-type opioid receptor (Homo sapiens) (UniProt P41143).
Sequence of Delta-type opioid receptor (Homo sapiens) (P41143 whole entry): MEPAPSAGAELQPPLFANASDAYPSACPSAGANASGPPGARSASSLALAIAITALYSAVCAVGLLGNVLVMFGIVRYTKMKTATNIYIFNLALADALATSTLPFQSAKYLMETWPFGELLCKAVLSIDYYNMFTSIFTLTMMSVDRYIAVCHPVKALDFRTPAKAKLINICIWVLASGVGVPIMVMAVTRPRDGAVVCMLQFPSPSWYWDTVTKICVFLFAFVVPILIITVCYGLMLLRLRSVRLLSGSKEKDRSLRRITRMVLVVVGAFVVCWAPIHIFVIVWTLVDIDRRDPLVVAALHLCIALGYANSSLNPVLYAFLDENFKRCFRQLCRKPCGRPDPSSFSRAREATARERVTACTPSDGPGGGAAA
Assay [14] concerns the target Histamine H4 receptor (Homo sapiens) (UniProt Q9H3N8).
For assay [15], the target named is T4, Alpha-1A adrenergic receptor (Homo sapiens) (UniProt P35348).
T4 sequence (whole entry): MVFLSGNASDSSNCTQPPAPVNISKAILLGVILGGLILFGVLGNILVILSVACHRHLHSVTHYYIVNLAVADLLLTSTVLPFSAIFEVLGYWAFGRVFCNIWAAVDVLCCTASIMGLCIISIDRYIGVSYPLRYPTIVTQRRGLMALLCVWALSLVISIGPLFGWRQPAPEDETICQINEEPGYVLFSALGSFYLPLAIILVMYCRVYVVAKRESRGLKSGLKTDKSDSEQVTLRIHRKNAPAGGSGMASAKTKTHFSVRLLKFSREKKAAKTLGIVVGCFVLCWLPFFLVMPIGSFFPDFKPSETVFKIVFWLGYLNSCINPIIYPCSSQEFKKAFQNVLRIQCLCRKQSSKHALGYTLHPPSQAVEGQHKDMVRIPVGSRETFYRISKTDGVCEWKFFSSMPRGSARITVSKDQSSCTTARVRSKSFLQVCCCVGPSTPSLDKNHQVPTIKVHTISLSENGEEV

Assay [16] deals with Muscarinic acetylcholine receptor M3 (Homo sapiens) (UniProt P20309).
Sequence of Muscarinic acetylcholine receptor M3 (Homo sapiens) (P20309 whole entry, looked up): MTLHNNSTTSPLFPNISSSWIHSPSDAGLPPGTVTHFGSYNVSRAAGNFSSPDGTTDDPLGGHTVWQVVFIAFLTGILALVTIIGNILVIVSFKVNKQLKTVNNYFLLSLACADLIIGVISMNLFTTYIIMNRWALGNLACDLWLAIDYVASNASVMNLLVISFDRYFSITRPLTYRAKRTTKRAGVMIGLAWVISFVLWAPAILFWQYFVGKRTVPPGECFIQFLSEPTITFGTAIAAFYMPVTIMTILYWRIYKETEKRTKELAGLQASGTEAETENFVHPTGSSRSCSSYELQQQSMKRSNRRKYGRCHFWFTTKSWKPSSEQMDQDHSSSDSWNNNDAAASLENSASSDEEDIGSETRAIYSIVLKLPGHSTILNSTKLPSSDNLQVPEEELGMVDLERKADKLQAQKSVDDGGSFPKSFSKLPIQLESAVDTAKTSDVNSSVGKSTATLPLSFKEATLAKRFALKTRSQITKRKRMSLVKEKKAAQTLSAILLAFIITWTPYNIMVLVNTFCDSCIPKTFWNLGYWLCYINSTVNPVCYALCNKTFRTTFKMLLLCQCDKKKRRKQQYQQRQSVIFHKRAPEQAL
Assay [17] concerns the target Sodium-dependent dopamine transporter (Homo sapiens) (UniProt Q01959).
For assay [18], the target named is D(3) dopamine receptor (Homo sapiens) (UniProt P35462).
Sequence of D(3) dopamine receptor (Homo sapiens) (P35462 whole entry): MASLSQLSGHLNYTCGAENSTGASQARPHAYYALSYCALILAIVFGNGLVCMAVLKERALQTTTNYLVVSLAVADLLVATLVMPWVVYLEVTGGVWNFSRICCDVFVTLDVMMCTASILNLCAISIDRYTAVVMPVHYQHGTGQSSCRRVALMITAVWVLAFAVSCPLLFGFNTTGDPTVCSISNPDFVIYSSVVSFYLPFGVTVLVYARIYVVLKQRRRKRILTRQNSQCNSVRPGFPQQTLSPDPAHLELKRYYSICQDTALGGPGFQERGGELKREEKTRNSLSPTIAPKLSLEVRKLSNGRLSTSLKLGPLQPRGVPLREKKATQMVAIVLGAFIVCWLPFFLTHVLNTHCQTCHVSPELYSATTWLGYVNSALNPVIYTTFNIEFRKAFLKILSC
Assay [19] addresses D(1B) dopamine receptor (Homo sapiens) (UniProt P21918).
In assay [20] the target is Beta-2 adrenergic receptor (Homo sapiens) (UniProt P07550).

Sequence of Sodium-dependent dopamine transporter (Homo sapiens) (Q01959 whole entry): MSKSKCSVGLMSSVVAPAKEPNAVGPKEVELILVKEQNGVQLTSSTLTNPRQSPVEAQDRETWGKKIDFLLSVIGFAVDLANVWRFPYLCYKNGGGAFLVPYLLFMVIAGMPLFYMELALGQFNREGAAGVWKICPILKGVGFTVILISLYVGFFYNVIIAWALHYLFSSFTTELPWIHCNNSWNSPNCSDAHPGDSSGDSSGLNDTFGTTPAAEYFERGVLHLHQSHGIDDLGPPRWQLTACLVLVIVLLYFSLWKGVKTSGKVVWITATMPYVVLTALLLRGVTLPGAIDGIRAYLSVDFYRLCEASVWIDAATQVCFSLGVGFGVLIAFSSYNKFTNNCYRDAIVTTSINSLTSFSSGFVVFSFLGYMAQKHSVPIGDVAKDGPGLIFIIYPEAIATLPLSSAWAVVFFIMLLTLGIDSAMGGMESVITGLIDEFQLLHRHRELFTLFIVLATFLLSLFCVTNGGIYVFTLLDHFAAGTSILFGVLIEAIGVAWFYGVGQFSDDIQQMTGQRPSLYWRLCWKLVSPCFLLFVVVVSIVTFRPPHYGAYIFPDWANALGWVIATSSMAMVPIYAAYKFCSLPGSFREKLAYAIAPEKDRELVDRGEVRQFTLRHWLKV
Sequence of 5-hydroxytryptamine receptor 1B (Homo sapiens) (P28222 whole entry): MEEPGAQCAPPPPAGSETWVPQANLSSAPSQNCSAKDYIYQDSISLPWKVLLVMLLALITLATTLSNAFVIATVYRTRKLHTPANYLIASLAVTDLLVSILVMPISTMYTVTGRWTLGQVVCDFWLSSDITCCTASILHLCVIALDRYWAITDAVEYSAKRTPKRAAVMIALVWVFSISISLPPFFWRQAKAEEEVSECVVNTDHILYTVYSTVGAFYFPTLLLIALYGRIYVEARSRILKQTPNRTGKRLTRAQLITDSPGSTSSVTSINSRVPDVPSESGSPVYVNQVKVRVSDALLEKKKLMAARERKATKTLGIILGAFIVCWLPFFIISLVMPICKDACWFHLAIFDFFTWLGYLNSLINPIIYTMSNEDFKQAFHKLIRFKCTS
Sequence of D(1B) dopamine receptor (Homo sapiens) (P21918 whole entry): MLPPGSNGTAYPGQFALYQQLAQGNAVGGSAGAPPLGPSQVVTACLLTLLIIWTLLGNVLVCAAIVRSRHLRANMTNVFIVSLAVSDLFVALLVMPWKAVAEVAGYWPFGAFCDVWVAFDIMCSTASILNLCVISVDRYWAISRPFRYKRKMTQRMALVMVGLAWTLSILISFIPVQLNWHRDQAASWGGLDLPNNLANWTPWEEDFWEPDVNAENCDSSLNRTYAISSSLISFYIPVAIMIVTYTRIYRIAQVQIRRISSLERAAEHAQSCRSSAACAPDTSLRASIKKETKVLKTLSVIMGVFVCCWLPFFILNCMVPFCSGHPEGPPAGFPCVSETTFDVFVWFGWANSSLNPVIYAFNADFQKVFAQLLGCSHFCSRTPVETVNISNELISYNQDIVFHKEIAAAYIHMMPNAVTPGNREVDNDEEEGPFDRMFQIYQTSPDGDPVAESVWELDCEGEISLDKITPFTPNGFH

Regarding `CNc1nc(NCc2ccc(NS(C)(=O)=O)cc2Cl)cc(-c2ccccn2)n1`, the inhibition (as a rule, the change of the read-out against control, counted positive when it falls) in assay [1] is 14.5%; in assay [2], 3.99%; in assay [3], 9.22%; in [4] it was 12.4%; in assay [5] it was 66.5%; in assay [6], 39.1%. Moreover, the inhibition in assay [7] is 77.9%; in [8] it was 12%; in assay [9], -0.08%; in assay [10], 0.67%; in [11], 60.3%; in [12], -4.41%. The inhibition in assay [13] was -8.14%; in [14], 0.58%; in [15] it was 8%; in assay [16], -1.96%; in assay [17], 47.6%; in [18], 56.5%.

`CC1(C)SSC(C)(C)[C@@H](NC(=O)[C@@H](N)Cc2ccc(O)cc2)C(=O)NCC(=O)N[C@@H](Cc2ccccc2)C(=O)N[C@H]1C(=O)O`: the inhibition is 7.79% in assay [2]; -6.96% in assay [3]; 24.7% in assay [5]; 22.6% in assay [6]; -0.55% in [7]; 3.84% in assay [19]. Besides, the inhibition in assay [8] was 3.33%; in [10] it was 15.2%; in [11], 24.5%; in [12] it was 30.3%; in [20] it was -0.03%; in assay [14] it was -8.56%. Moreover, the inhibition in [15] was -6.07%; in assay [16], -1.79%; in assay [17], 27.3%; in assay [18], 0.23%.

Turning to `OCc1cc(C(O)CNCCCCCCOCCCCc2ccccc2)ccc1O` (configuration not stated), the inhibition in assay [1] is 6.99%; in assay [2], 51.1%; in [3] it was 19.1%; in [4] it was 65.8%; in assay [5], 90.4%; in assay [6], 102%. The inhibition in assay [7] was 97.4%; in [19] it was 19.6%; in [8], 27.7%; in assay [9], 4.21%; in [10] it was 76.6%; in [11], 78.2%. For the same compound, the inhibition in [12] was 10.9%; in [13] it was 5.6%; in assay [14], 6.15%; in assay [15] it was 77%; in [16] it was -8.98%; in assay [17], 86.5%. Besides, the inhibition in assay [18] is 59.6%.

Turning to `CC1CCN(CC[C@H]2CCCN2S(=O)(=O)c2cccc(O)c2)CC1`, the inhibition was 62.9% in assay [1]; 78.2% in assay [2]; -8.14% in assay [3]; 15.4% in assay [5]; 98.2% in [6]; 85.8% in assay [7]. Besides, the inhibition was 85.1% in [19]; 44.4% in assay [8]; -9.3% in assay [9]; 88.7% in assay [10]; 28.8% in [11]; 33.5% in assay [12]. The inhibition was -9.8% in [20]; 7.91% in assay [13]; 10.6% in assay [14]; 0.09% in assay [16]; 46.1% in [17]; 61.6% in [18].

In the case of `Clc1ccc(CCCOCCCN2CCCCC2)cc1`, the inhibition in assay [1] is 3.99%; in assay [2], 12.1%; in assay [3], 24.5%; in assay [4], 0.84%; in [5] it was 37%; in [6] it was 98.7%. The inhibition was 63.3% in assay [7]; 68.7% in [8]; 28.6% in assay [9]; 16.4% in [10]; 28.5% in [11]; 6.98% in [12]. The inhibition in assay [20] was -7.56%; in assay [13], -1.15%; in assay [14] it was -7.57%; in assay [15], -2.04%; in [16], 44.5%; in assay [17], 25.6%. Also, the inhibition in [18] was 47.4%.

With `FC(F)(F)c1cccc(-c2noc(-c3cc(-c4ccccc4)c(C(F)(F)F)s3)n2)c1`, the inhibition in [1] is -7.64%; in [2], 1.92%; in assay [3], 21.5%; in assay [4], 1.55%; in assay [5], 10.1%; in assay [7], 7.06%. Also, the inhibition was 17% in [8]; 0.39% in assay [9]; -9.1% in [10]; -1.97% in assay [11]; 24.7% in assay [12]; -5.11% in [16]. Further, the inhibition in assay [17] is 17.8%.

Regarding `C[N+]1(C)[C@@H]2C[C@@H](OC(=O)C(O)(c3cccs3)c3cccs3)C[C@H]1[C@@H]1O[C@@H]12`, the inhibition in assay [1] is 10.3%; in assay [2], 14.9%; in assay [3], 94.5%; in [4], 13.1%; in assay [5] it was 11.5%; in [6] it was 66.5%. Moreover, the inhibition is -5.44% in assay [7]; 92.1% in assay [8]; 14.3% in assay [9]; 32.9% in assay [10]; -4.76% in assay [11]; 15.2% in assay [12]. Also, the inhibition was 16.1% in assay [20]; -1.59% in [13]; -8.1% in [14]; 3.89% in assay [15]; 99.2% in assay [16]; -2.43% in [17]. The inhibition in assay [18] was 24%.
